Some results are limits rather than exact numbers.

Assay [1] concerns the target T1, Human Neuropeptide Y2 Receptor (Homo sapiens, UniProt P49146).
T1 construct: purchased CHEMICON HTS066M
T1 sequence (P49146 1-381): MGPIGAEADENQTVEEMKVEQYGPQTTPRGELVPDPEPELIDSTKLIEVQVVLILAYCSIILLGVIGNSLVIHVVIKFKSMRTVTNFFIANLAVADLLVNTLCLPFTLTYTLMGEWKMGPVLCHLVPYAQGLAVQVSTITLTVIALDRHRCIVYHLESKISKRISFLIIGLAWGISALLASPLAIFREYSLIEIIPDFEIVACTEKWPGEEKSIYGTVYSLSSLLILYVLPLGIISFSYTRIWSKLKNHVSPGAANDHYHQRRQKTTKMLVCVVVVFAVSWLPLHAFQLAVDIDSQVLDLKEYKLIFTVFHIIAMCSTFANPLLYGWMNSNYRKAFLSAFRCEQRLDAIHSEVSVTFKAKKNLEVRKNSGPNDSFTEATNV
Nature of the assay: Radioligand binding competition assay (RLB). The settings on record: Table 3; human 125I-PYY (1-36) 0.02 nM, Y2 receptor membranes; read-out: Ki. Put shortly: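 Membranes from cells expressing human Y2 receptor (0.5 μg protein/well) were incubated with radioligand and serially diluted peptides in 50 mM HEPES, 5 mM MgCl2, 1 mM CaCl2, 0.2% ovalbumin, pH 7.4, for 2 h at room temperature with shaking. Bound radioactivity was collected by filtration and counted; IC50 from sigmoidal nonlinear regression.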

In a further assay the target is T2, human NPY1 receptor (Homo sapiens, UniProt P25929).
T2 construct: expressed in transfected cells; host or cells: CHO-K1
T2 sequence (P25929 1-384): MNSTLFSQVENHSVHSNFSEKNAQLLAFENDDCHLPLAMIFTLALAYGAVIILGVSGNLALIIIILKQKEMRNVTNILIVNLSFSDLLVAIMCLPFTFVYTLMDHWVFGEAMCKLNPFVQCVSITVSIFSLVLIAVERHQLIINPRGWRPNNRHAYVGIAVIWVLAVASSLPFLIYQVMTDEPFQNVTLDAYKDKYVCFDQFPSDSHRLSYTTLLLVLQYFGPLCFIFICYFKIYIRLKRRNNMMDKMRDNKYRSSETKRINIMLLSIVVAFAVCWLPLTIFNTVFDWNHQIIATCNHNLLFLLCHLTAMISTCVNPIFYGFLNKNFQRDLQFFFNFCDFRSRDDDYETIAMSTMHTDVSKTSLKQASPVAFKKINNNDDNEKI
As to the kind of experiment: HTRF cAMP Gi assay, hY1R. Type of assay: cell-based. The settings on record: Table 4; CHO-K1 cells.

A further assay deals with T3, human NPY4 receptor (Homo sapiens, UniProt P50391).
T3 construct: expressed in transfected cells; host or cells: CHO-K1
As to the kind of experiment: HTRF cAMP Gi assay, hY4R. Type of assay: cell-based. The settings on record: Table 4; CHO-K1 cells.

The subject of another assay is normal NMRI mice. As to the kind of experiment: Effect on acute food intake in normal NMRI mice. It counts as in vivo. The settings on record: male NMRI mice, 10 nmol/kg subcutaneously once. The gist of the method: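 A single 10 nmol/kg s.c. peptide dose was given 1 h before lights-off to male NMRI mice fasted from 6 h before the night phase (n=7-8). Intake was recorded continuously by microchip-identified HM-2 feeding channels. Values are normalized to vehicle controls (50 mM phosphate buffer pH7 with 5% Mannitol).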

The next assay concerns the target T4, human NPY2 receptor (Homo sapiens, UniProt P49146).
T4 sequence (P49146 1-381): T1 sequence (P49146 1-381)
Nature of the assay: HTRF cAMP Gi assay, hY2R.

A further assay addresses T5, human NPY5 receptor (Homo sapiens, UniProt Q15761).
T5 sequence (Q15761 1-445): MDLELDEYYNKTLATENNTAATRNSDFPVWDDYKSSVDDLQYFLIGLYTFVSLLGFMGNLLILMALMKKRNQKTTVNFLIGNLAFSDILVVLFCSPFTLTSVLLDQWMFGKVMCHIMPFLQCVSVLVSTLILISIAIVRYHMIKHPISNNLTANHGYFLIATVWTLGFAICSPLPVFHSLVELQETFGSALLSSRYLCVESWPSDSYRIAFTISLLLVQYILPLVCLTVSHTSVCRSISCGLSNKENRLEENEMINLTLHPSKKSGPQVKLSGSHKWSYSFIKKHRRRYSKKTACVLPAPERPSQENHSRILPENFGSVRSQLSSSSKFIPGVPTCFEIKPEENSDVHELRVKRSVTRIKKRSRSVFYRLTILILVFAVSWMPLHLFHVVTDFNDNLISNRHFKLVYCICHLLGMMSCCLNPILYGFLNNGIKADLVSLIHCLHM
As to the kind of experiment: HTRF cAMP Gi assay, hY5R.

T3 sequence (P50391 whole entry): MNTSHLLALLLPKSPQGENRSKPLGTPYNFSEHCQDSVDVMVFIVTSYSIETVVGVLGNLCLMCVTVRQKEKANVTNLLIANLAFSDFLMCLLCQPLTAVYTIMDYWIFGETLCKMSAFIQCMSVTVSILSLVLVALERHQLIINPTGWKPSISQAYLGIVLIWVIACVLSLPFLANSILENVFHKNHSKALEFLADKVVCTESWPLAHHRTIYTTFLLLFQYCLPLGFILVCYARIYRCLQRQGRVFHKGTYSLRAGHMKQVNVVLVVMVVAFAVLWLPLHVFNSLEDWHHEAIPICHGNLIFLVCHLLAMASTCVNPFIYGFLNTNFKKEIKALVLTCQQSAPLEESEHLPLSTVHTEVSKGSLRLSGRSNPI
Description for human NPY1 receptor: (§1) Briefly, the production of intracellular cAMP will generate a competition between unlabeled cAMP and exogenously added d2-cAMP for anti-cAMP antibodies conjugated to cryptate. CHO-K1 cells stably expressing the human NPY1, NPY2, NPY4 and NPY5 receptors were used with the cells brought to life from a frozen stock immediately before assay performance. 2000 cells per well were applied for all four NPY receptor subtype assays. A 384-well format was used applying a total volume of 20 μl using 5 μl cells, 2.5 μl peptide agonist, 2.5 μl forskolin and 5 μl of each of the fluorophores. […] Concentration-response evaluation of compounds was performed with 11 concentrations of agonist peptides (covering 3 decades). EC50 values were calculated by nonlinear regression using sigmoid concentration-response with variable slope.
Description for human NPY2 receptor: as §1
Excerpt for human NPY4 receptor: (§2) The Homogenous Time Resolved fluorescence (HTRF) technology optimized for Gi coupled receptors has thoroughly been described in Cisbio cAMP Gi kit manual. Briefly, the production of intracellular cAMP will generate a competition between unlabeled cAMP and exogenously added d2-cAMP for anti-cAMP antibodies conjugated to cryptate. CHO-K1 cells stably expressing the human NPY1, NPY2, NPY4 and NPY5 receptors were used with the cells brought to life from a frozen stock immediately before assay performance. 2000 cells per well were applied for all four NPY receptor subtype assays. A 384-well format was used applying a total volume of 20 μl using 5 μl cells, 2.5 μl peptide agonist, 2.5 μl forskolin and 5 μl of each of the fluorophores. […] Concentration-response evaluation of compounds was performed with 11 concentrations of agonist peptides (covering 3 decades). EC50 values were calculated by nonlinear regression using sigmoid concentration-response with variable slope.
Excerpt for human NPY5 receptor: as §2

Consider `CC(C)CC(=O)N[C@@H](C)C(=O)N1CCC[C@H]1C(=O)N[C@@H](CCC(=O)O)C(=O)N[C@@H](CCCCNC(=O)COCCOCCNC(=O)COCCOCCNC(=O)CC[C@H](NC(=O)CCCCCCCCCCCCCCCCC(=O)O)C(=O)O)C(=O)N1CCC[C@H]1C(=O)N[C@@H](CCC(=O)O)C(=O)N[C@@H](CCC(=O)O)C(=O)N[C@@H](CC(=O)O)C(=O)N[C@@H](C)C(=O)N[C@@H](CO)C(=O)N1CCC[C@H]1C(=O)N[C@@H](CCC(=O)O)C(=O)N[C@@H](CCC(=O)O)C(=O)N[C@@H](CC(C)C)C(=O)N[C@@H](CCC(N)=O)C(=O)N[C@@H](CCCNC(=N)N)C(=O)N[C@@H](Cc1ccc(O)cc1)C(=O)N[C@@H](Cc1ccc(O)cc1)C(=O)N[C@H](C(=O)N[C@@H](CO)C(=O)N[C@@H](CC(C)C)C(=O)N[C@@H](CCCNC(=N)N)C(=O)N[C@@H](Cc1c[nH]cn1)C(=O)N[C@@H](Cc1ccc(O)cc1)C(=O)N[C@@H](Cc1ccc(O)cc1)C(=O)N[C@@H](CC(N)=O)C(=O)N[C@@H](Cc1c[nH]c2ccccc12)C(=O)N[C@@H](CC(C)C)C(=O)N[C@H](C(=O)N[C@@H](CCCNC(=N)N)C(=O)N[C@@H](CCC(N)=O)C(=O)N[C@@H](CCCNC(=N)N)C(=O)N[C@@H](Cc1ccc(O)cc1)C(N)=O)[C@@H](C)O)C(C)C` [Compound 54, N{alpha-4}-(3-methylbutanoyl)-N{epsilon-7}-[2-(2-{2-[2-(2-{2-[(4S)-4-carboxy-4-(17-carboxyheptadecanamido)butanamido]ethoxy}ethoxy)acetamido]ethoxy}ethoxy)acetamido]-[4A,7K,9E,18Q,22V,28Y,30W,31L]hPYY (4-36)], for which the Ki in assay [1] was found to be 0.95 nM. The EC50 on human NPY1 receptor was above 5 µM; at human NPY4 receptor, above 5 µM; at human NPY2 receptor it was 0.131 nM; at human NPY5 receptor, above 5 µM. In the assay on normal NMRI mice, the “Acute Food Intake 24 h [% vehicle]” value came to 42 % vehicle.
As for `CC(C)CC(=O)N[C@@H](C)C(=O)N1CCC[C@H]1C(=O)N[C@@H](CCC(=O)O)C(=O)N[C@@H](CCCCNC(=O)COCCOCCNC(=O)COCCOCCNC(=O)CC[C@H](NC(=O)CCCCCCCCCCCCCCCCC(=O)O)C(=O)O)C(=O)N1CCC[C@H]1C(=O)N[C@@H](CCC(=O)O)C(=O)N[C@@H](CCC(=O)O)C(=O)N[C@@H](CC(=O)O)C(=O)N[C@@H](C)C(=O)N[C@@H](CCC(=O)O)C(=O)N1CCC[C@H]1C(=O)N[C@@H](CCC(=O)O)C(=O)N[C@@H](CCC(=O)O)C(=O)N[C@@H](CC(C)C)C(=O)N[C@@H](CCC(N)=O)C(=O)N[C@@H](CCC(=O)O)C(=O)N[C@@H](Cc1ccc(O)cc1)C(=O)N[C@@H](Cc1ccc(O)cc1)C(=O)N[C@H](C(=O)N[C@@H](CO)C(=O)N[C@@H](CC(C)C)C(=O)N[C@@H](CCCNC(=N)N)C(=O)N[C@@H](Cc1c[nH]cn1)C(=O)N[C@@H](Cc1ccc(O)cc1)C(=O)N[C@@H](Cc1ccc(O)cc1)C(=O)N[C@@H](CC(N)=O)C(=O)N[C@@H](Cc1c[nH]c2ccccc12)C(=O)N[C@@H](CC(C)C)C(=O)N[C@H](C(=O)N[C@@H](CCCNC(=N)N)C(=O)N[C@@H](CCC(N)=O)C(=O)N[C@@H](CCCNC(=N)N)C(=O)N[C@@H](Cc1ccc(O)cc1)C(N)=O)[C@@H](C)O)C(C)C` [Compound 105, N{alpha-4}-(3-methylbutanoyl)-N{epsilon-7}-[2-(2-{2-[2-(2-{2-[(4S)-4-carboxy-4-(17-carboxyheptadecanamido)butanamido]ethoxy}ethoxy)acetamido]ethoxy}ethoxy)acetamido]-[4A,7K,9E,13E,18Q,19E,22V,28Y,30W,31L]hPYY (4-36)], the inhibition constant (Ki) in assay [1] is 6.94 nM. For the same molecule, the EC50 was above 5 µM on human NPY1 receptor, above 5 µM on human NPY4 receptor, 0.284 nM on human NPY2 receptor and above 5 µM at human NPY5 receptor. For the same molecule, in the assay with normal NMRI mice, the “Acute Food Intake 24 h [% vehicle]” value is on record as 72 % vehicle.
For `CC(C)CC(=O)N[C@@H](C)C(=O)N1CCC[C@H]1C(=O)N[C@@H](CCC(=O)O)C(=O)N[C@@H](CCCCNC(=O)COCCOCCNC(=O)COCCOCCNC(=O)CC[C@H](NC(=O)CCCCCCCCCCCCCCCCC(=O)O)C(=O)O)C(=O)N1CCC[C@H]1C(=O)N[C@@H](CCC(=O)O)C(=O)N[C@@H](CCC(=O)O)C(=O)N[C@@H](CC(=O)O)C(=O)N[C@@H](C)C(=O)N[C@@H](CO)C(=O)N[C@@H](CCC(=O)O)C(=O)N[C@@H](CCC(=O)O)C(=O)N[C@@H](CCC(=O)O)C(=O)N[C@@H](CC(C)C)C(=O)N[C@@H](CCC(N)=O)C(=O)N[C@@H](CCC(=O)O)C(=O)N[C@@H](Cc1ccc(O)cc1)C(=O)N[C@@H](Cc1ccc(O)cc1)C(=O)N[C@H](C(=O)N[C@@H](CO)C(=O)N[C@@H](CC(C)C)C(=O)N[C@@H](CCCNC(=N)N)C(=O)N[C@@H](Cc1c[nH]cn1)C(=O)N[C@@H](Cc1ccc(O)cc1)C(=O)N[C@@H](Cc1ccc(O)cc1)C(=O)N[C@@H](CC(N)=O)C(=O)N[C@@H](Cc1c[nH]c2ccccc12)C(=O)N[C@@H](CC(C)C)C(=O)N[C@H](C(=O)N[C@@H](CCCNC(=N)N)C(=O)N[C@@H](CCC(N)=O)C(=O)N[C@@H](CCCNC(=N)N)C(=O)N[C@@H](Cc1ccc(O)cc1)C(N)=O)[C@@H](C)O)C(C)C` [Compound 164, N{alpha-4}-(3-methylbutanoyl)-N{epsilon-7}-[2-(2-{2-[2-(2-{2-[(4S)-4-carboxy-4-(17-carboxyheptadecanamido)butanamido]ethoxy}ethoxy)acetamido]ethoxy}ethoxy)acetamido]-[4A,7K,9E,14E,18Q,19E,22V,28Y,30W,31L]hPYY (4-36)], the inhibition constant (Ki) in assay [1] is 4.33 nM. The EC50 at human NPY1 receptor was above 5 µM; on human NPY4 receptor, above 5 µM; at human NPY2 receptor, 0.235 nM; on human NPY5 receptor, above 5 µM. Moreover, the “Acute Food Intake 24 h [% vehicle]” value in the assay with normal NMRI mice is recorded as 64 % vehicle.
Turning to `CC(C)CC(=O)N[C@@H](C)C(=O)N1CCC[C@H]1C(=O)N[C@@H](CCC(=O)O)C(=O)N[C@@H](CCCCNC(=O)COCCOCCNC(=O)COCCOCCNC(=O)CC[C@H](NC(=O)CCCCCCCCCCCCCCCCC(=O)O)C(=O)O)C(=O)N1CCC[C@H]1C(=O)N[C@@H](CCC(=O)O)C(=O)N[C@@H](CCC(=O)O)C(=O)N[C@@H](CC(=O)O)C(=O)N[C@@H](C)C(=O)N[C@@H](CCC(=O)O)C(=O)N1CCC[C@H]1C(=O)N[C@@H](CCC(=O)O)C(=O)N[C@@H](CCC(=O)O)C(=O)N[C@@H](CC(C)C)C(=O)N[C@@H](CCC(N)=O)C(=O)N[C@@H](CCCNC(=N)N)C(=O)N[C@@H](Cc1ccc(O)cc1)C(=O)N[C@@H](Cc1ccc(O)cc1)C(=O)N[C@H](C(=O)N[C@@H](CO)C(=O)N[C@@H](CC(C)C)C(=O)N[C@@H](CCCNC(=N)N)C(=O)N[C@@H](Cc1c[nH]cn1)C(=O)N[C@@H](Cc1ccc(O)cc1)C(=O)N[C@@H](Cc1ccc(O)cc1)C(=O)N[C@@H](CC(N)=O)C(=O)N[C@@H](Cc1c[nH]c2ccccc12)C(=O)N[C@@H](CC(C)C)C(=O)N[C@H](C(=O)N[C@@H](CCCNC(=N)N)C(=O)N[C@@H](CCC(N)=O)C(=O)N[C@@H](CCCNC(=N)N)C(=O)N[C@@H](Cc1ccc(O)cc1)C(N)=O)[C@@H](C)O)C(C)C` [Compound 188, N{alpha-4}-(3-methylbutanoyl)-N{epsilon-7}-[2-(2-{2-[2-(2-{2-[(4S)-4-carboxy-4-(17-carboxyheptadecanamido)butanamido]ethoxy}ethoxy)acetamido]ethoxy}ethoxy)acetamido]-[4A,7K,9E,13E,18Q,22V,28Y,30W,31L]hPYY (4-36)], in assay [1], the Ki was 3.09 nM. Also, the EC50 on human NPY1 receptor is above 5 µM; at human NPY4 receptor, above 5 µM; at human NPY2 receptor it was 0.106 nM; on human NPY5 receptor, above 5 µM. In addition, the “Acute Food Intake 24 h [% vehicle]” value in the assay on normal NMRI mice is 55 % vehicle.

For the origin of these results see patent publication US12559529B2, “NPY2 receptor agonists” (Boehringer Ingelheim International GmbH, priority 2019, dated 2026).
